Laboratory results published in patent US10689345B2, “1-cyano-pyrrolidine compounds as USP30 inhibitors” (Mission Therapeutics Limited, priority 2015, dated 2020).

Molecular target: USP30 (Homo sapiens (Human), UniProt Q70CQ3)
Test: USP30 biochemical FP (fluorescence polarisation) IC50 assay
Settings: USP30 biochemical FP or FI IC50 assay (table does not say which per compound); read-out: IC50 range
Experimental: In Vitro USP30 FP Inhibition Assay
USP30 Biochemical IC50 Assay
Dilution plates were prepared at 21 times the final concentration (2100 μM for a final concentration of 100 μM) in 50% DMSO in a 96-well polypropylene V-bottom plate (Greiner #651201). A typical 8-point dilution series would be 100, 30, 10, 3, 1, 0.3, 0.1, 0.03 μM final. Reactions were performed in duplicate in black 384 well plates (small volume, Greiner 784076) in a final reaction volume of 21 μl. Either 1 μl of 50% DMSO or diluted compound was added to the plate. USP30 was diluted in reaction buffer (40 mM Tris, pH 7.5, 0.005% Tween 20, 0.5 mg/ml BSA, 5 mM beta-mercaptoethanol) to the equivalent of 0.05 μl/well and 10 μl of diluted USP30 was added to the compound. Enzyme and compound were incubated for 30 min at room temp. Reactions were initiated by the addition of 50 nM of TAMRA labelled peptide linked to ubiquitin via an iso-peptide bond as fluorescence polarisation substrate. Reactions were read immediately after addition of substrate and following a 2 hr incubation at room temperature. Readings were performed on a Pherastar Plus (BMG Labtech). λ Excitation 540 nm; λ Emission 590 nm.

Chain of USP30 (Q70CQ3 57-517): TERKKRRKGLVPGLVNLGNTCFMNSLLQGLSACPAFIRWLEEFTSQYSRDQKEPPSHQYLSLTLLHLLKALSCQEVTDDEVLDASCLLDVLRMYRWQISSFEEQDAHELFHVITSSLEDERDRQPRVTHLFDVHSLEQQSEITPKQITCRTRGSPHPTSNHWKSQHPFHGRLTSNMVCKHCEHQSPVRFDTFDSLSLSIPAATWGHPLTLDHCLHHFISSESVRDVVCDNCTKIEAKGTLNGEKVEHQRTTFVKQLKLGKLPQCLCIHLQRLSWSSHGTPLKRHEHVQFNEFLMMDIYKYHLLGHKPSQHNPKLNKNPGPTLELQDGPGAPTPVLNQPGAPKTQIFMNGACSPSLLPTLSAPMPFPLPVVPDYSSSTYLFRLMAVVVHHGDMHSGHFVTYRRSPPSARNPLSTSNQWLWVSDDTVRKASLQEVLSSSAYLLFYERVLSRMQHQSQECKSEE

## N#CN1C[C@H](NC(=O)c2ccc(-c3ccccc3)cc2)[C@@H](F)C1 (relative stereo) [Example 176, N-((trans)-1-cyano-4-fluoropyrrolidin-3-yl)-[1,1′-biphenyl]-4-carboxamide]
  IC50: 100 to 1000 nM

## Cn1cc(-c2ccc(C(=O)N[C@@H]3CCN(C#N)C3)c(F)c2F)cn1 [Example 131, (R)-N-(1-cyanopyrrolidin-3-yl)-2,3-difluoro-4-(1-methyl-1H-pyrazol-4-yl)benzamide]
  IC50: < 100 nM

## N#CN1CC[C@@H](NC(=O)c2cc(F)c(N3CCOCC3)cc2F)C1 [Example 144, (R)-N-(1-cyanopyrrolidin-3-yl)-2,5-difluoro-4-morpholinobenzamide]
  IC50: 100 to 1000 nM

## Cn1cc(-c2ccc3nc(C(=O)N[C@@H]4CCN(C#N)C4)c(F)n3c2)cn1 [Example 168, (R)-N-(1-cyanopyrrolidin-3-yl)-3-fluoro-6-(1-methyl-1H-pyrazol-4-yl)imidazo [1,2-a]pyridine-2-carboxamide]
  IC50: 100 to 1000 nM

## N#CN1CC[C@@H](NC(=O)c2cc(-c3ccc(Cl)cc3)no2)C1 [Example 218, (R)-3-(4-chlorophenyl)-N-(1-cyanopyrrolidin-3-yl)isoxazole-5-carboxamide]
  IC50: < 100 nM

## N#CN1CCC(NC(=O)Nc2ccc(-c3ccccc3)cc2)C1 (stereo not drawn) [Example 254, 1-([1,1′-biphenyl]-4-yl)-3-(1-cyanopyrrolidin-3-yl)urea]
  IC50: < 100 nM

## Cc1noc(C)c1-c1ccc2cc(C(=O)N(C)[C@@H]3CCN(C#N)C3)[nH]c2c1 [Example 262, (R)-N-(1-cyanopyrrolidin-3-yl)-6-(3,5-dimethylisoxazol-4-yl)-N-methyl-1H-indole-2-carboxamide]
  IC50: < 100 nM

## (R)-N-(1-cyanopyrrolidin- 3-yl)-2-fluoro-3-(1-methyl- 1H-pyrazol-yl)benzamide [Example 104]
  IC50: 100 to 1000 nM

## N-((R)-1-cyanopyrrolidin- 3-yl)-((2S,6R)-2,6- dimethylmorpholino)-5- fluoroisonicotinamide [Example 140]
  IC50: 100 to 1000 nM
